Laboratory results reported in patent publication EP4059493A1, “A CHLOROPHYLLIN CONTAINING PHARMACEUTICAL COMPOSITION FOR PREVENTION OF PATHOGENESIS OF CORONAVIRUS DISEASE” (priority 2021, dated 2022).
Like-named read-outs stand apart in the source and are kept apart here.

What was measured:
white blood cell = experiment: Phase I clinical study: white blood cell (WBC) count in blood; type: in vivo, human; details: 8-16hr after first dose (750 mg), fasting
Procedure: (§1) An open label Phase I clinical study was conducted to assess pharmacodynamics of sodium copper Chlorophyllin in healthy adult, human male subjects under fasting conditions. The study was approved by Drug Controller General of India (DCGI). The trial is registered with the Clinical Trial Registry of India (CTRI/2018/09/015576). Five healthy male subjects were allowed to fast overnight and one Chlorophyllin tablet (750 mg) was administered to each subject by oral route along with ∼200 ml water. The subjects were given breakfast, lunch and snacks and a second tablet of Chlorophyllin (750 mg) was administered to each subject by oral route along with 200 ml water after 12 hr.
(§2) Chlorophyllin tablets comprising Chlorophyllin or salts thereof (750 mg), were administered to healthy human subjects after overnight fasting. Blood samples were collected through an indwelling intravenous cannula (Venflon) placed in the fore arm vein of the subjects at different time intervals. Absolute neutrophil count (ANC) and white blood cell (WBC) counts were measured. Serum was separated and chemokine concentration in the serum was measured using cytometric bead array.

lymphocytes = experiment: Phase I clinical study: lymphocyte counts in blood; type: in vivo, human; details: Fig 4A
Procedure: as §1, §2

MIP-1α = experiment: Phase I clinical study: serum chemokine by cytometric bead array, MIP-1α; type: in vivo, human; details: 72hr after first dose
Procedure: as §1, §2

healthy human subjects = experiment: Phase I clinical study: tolerability in healthy human subjects; type: in vivo; details: 750 mg given twice a day, all five human subjects
Procedure: as §1

Vero CCL-81 cells = details: 5µM Concentration (Fig 4B right panel)
rats [1] = experiment: Acute oral toxicity (oral gavage), rats; type: in vivo
Procedure: (§3) Different doses of Chlorophyllin (100 to 5000 mg/kg body weight) were given to mice and rats (6 males, 6 females) by oral gavage in an accredited facility for animal toxicity testing. […] There were no signs of toxicity in rodents treated with indicated doses of Chlorophyllin.

neutrophils = experiment: Phase I clinical study: absolute neutrophil count (ANC) in blood; type: in vivo, human
Procedure: as §1, §2

MCP-1 = experiment: Phase I clinical study: serum chemokine by cytometric bead array, MCP-1; type: in vivo, human; details: 24hr after first dose
Procedure: as §1, §2

MIP-1β = experiment: Phase I clinical study: serum chemokine by cytometric bead array, MIP-1β; type: in vivo, human; details: 24hr after first dose
Procedure: as §1, §2

SARS-CoV-2 virus = type: cell-based
[2] = test system: CD34+ hematopoietic stem and progenitor cells; experiment: Phase I clinical study: CD34+ hematopoietic stem and progenitor cells in blood by flow cytometry; type: in vivo, human; details: 750 mg tablets, fasting (Fig 2)
Procedure: as §1
Blood sample at each time point was also collected in K2EDTA vacutainer tube and erythrocytes were lysed using RBC lysis buffer. Then cells were stained with fixable far red live dead reagent and PE-CD34 and FITC-CD45 antibodies at 4°C and fixed with 4% formaldehyde. The frequency of CD34+ hematopoietic stem and progenitor cells in the blood was determined by flow cytometry and FlowJo software.

rats [3] = experiment: 28 day repeat dose toxicity study; type: in vivo; details: daily dose of 1000 mg per kg body weight for 28 consecutive days
Procedure: as §3

mice = experiment: Acute oral toxicity (oral gavage), mice; type: in vivo
Procedure: as §3

## Sodium copper Chlorophyllin
White blood cell
  increase in WBC count relative to pre-dose value: 12.8-26.5%
lymphocytes
  increase in the lymphocyte counts in human blood as compared to pre-dose value: up to 30%
MIP-1α
  relative decrease in MIP-1α in human blood as compared to pre-dose value: 12-21%
Healthy human subjects
  tolerability in human subjects: well tolerated
Vero CCL-81 cells
  cytotoxicity in the target cells: without causing cytotoxicity
Rats [1]; rats, up to 5000 mg/kg body weight, oral gavage
  tolerability of acute oral dose: well tolerated
Rats [1]; rodents (rats), proposed from absence of toxicity, morbidity or mortality
  LD50 dose: higher than 5000 mg/kg body weight
neutrophils; 750 mg, 4hr before second dose
  time after first dose at which ANC increase was observed: ≤ 8 h
neutrophils; 8-16 hr after first dose (750 mg), fasting, five subjects
  increase in ANC relative to pre-dose value: 12.4-32.5%
MCP-1
  relative decrease in MCP-1 in human blood as compared to pre-dose value: 13-37%
MIP-1β
  relative decrease in MIP-1β in human blood as compared to pre-dose value: 11-55%
SARS-CoV-2 virus; 0.1 micro molar concentration (Fig 4 right panel)
  effect on SARS-CoV-2 virus multiplication: did not inhibit
SARS-CoV-2 virus; 5 micro-molar concentration, 72 hr (three days), Vero CCL-81 cells
  inhibition of SARS-CoV-2 multiplication: ~87%
SARS-CoV-2 virus; 72 hr treatment, read-out: concentration of CHL required to inhibit the growth of SARS-CoV-2 virus by 50% (EC50)
  EC50: < 1000 nM
SARS-CoV-2 virus; Fig 4
  concentration of chlorophyllin required for ∼90% inhibition of multiplication of SARS-CoV-2 virus: about 5 micro molar
SARS-CoV-2 virus; Vero CCL-81 cells, 72 hr, read-out: concentration of Chlorophyllin required for inhibition of 50% viral multiplication(EC50)
  EC50: < 1000 nM
SARS-CoV-2 virus; less than 1 micro-molar concentration
  effect on multiplication of SARS-CoV-2 virus: did not significantly decrease
[2]
  relative decrease in percentage of CD34+ HPSCs in human blood as compared to pre-dose value: 50-85%
Rats [3]
  tolerability in repeat dose toxicity study: well tolerated
mice; mice, up to 5000 mg/kg body weight, oral gavage
  tolerability of acute oral dose: well tolerated
mice; rodents (mice), proposed from absence of toxicity, morbidity or mortality
  LD50 dose: higher than 5000 mg/kg body weight
